These results are taken from patent US10421773B2, “Bone-selective osteogenic oxysterol bisphosphonate analogs” (The Regents of the University of California, priority 2014, dated 2019).

Data set [1] has as its system human primary mesenchymal stem cells. The following applies: cited from earlier work.
Data set [2] in a line: Half-life in human liver microsomes. The data set is classed as in vitro ADME. The following applies: HLM. Background: Liver microsomes are a subcellular fraction often used to study metabolism.
The test system of a further data set is spine fusion. The following applies: compared to other analogues; cited from earlier work.
Another data set relates to bone disease models. The following applies: rabbit spine fusion and rabbit calvarial defect models; cited from earlier work.
For data set [3], the system named is M2-10B4 osteoprogenitor cells. Briefly: Osteogenic gene expression (ALP, BSP, OSX) in M2-10B4 cells. In kind it is cell-based. Particulars: 6 and 14 days of treatment, compared with untreated control cells and unconjugated OXY133, ranking within each linker series. How it is done:
(§1) Oxy133-ALN conjugates were tested in M2-10B4 osteoprogenitor cells to ascertain osteogenic activity and confirm their mechanism of action in inducing osteogenic differentiation. Alkaline phosphatase (ALP) activity, induction of the expression of osteogenic differentiation marker genes (ALP; bone sialoprotein (BSP); and osterix (OSX)), and ^45Ca incorporation as a measure of extracellular matrix mineralization were assayed by our previously reported protocols. The inventors have shown that these in vitro assays translate into in vivo stimulation of bone formation in a variety of animal models. The gene expression for ALP, BSP and OSX induced by the OXY133-ALN conjugates were measured after 6 and 14 days of treatment, the results after 6 days are shown in FIG. 1.
(§2) The succinate-linked series (Oxy166, Oxy167, Oxy174) and the carbamate series (Oxy175, Oxy176, and Oxy177) were assayed as groups. […] It may be that OXY133 must be released from the OXY133-ALN conjugates in order to induce osteogenic gene expression. […] A quantitative ^45Ca mineralization assay was performed with analogues and unconjugated OXY133 over a 30-day incubation period in M2 cells as shown in FIG. 2.

Data set [4] concerns M2-10B4 osteoprogenitor cells. The data set can be described thus: Alkaline phosphatase (ALP) activity induction. The data set is classed as cell-based. The following applies: M2-10B4 cells; result mirrored the gene expression ranking. The protocol:
as §1, §2

Data set [5] in a line: Hydroxyapatite (HAP) binding assay, NMR readout. Particulars: in D2O, internal integration standard maleic acid, low HAP loading (FIG. 4C). How it is done:
The bone binding properties of bisphosphonates are due to their affinity for calcium in hydroxyapatite (HAP). Relative HAP binding capacity can be measured by incubating a solution of an analyte with HAP and measuring the proportion of compound remaining in the supernatant. […] Reliable quantification of a range of analytes can be obtained by using an inverse-gated decoupling pulse sequence and sufficiently long relaxation delays (d1).
The HAP binding assay was carried out under the following conditions: 1 mL of 4 mM analyte in 50 mM tris buffer at pH 7.5 is incubated with HAP (or no HAP for control) by inversion for 15 minutes. […] The procedure is illustrated in FIG. 3A.
The binding strengths of the OXY133-ALN conjugates of the present invention relative to ALN were determined and any differences in binding affinity contributed by the degree (mono- vs. bis-ALN linked conjugates), position (C3-OH vs. C6-OH), and nature (succinate vs. glycinate) of the Oxy133-ALN conjugates noted. ALN was used as a positive control and benzyl phosphonic acid (BnP) as an established negative control. 600 mg of HAP was used for the “large HAP loading” condition (FIG. 4A) and 150 mg of HAP was used for the “low HAP loading” condition (FIG. 4B).
Experimental conditions: 1 mL of 4 mM analyte in 50 mM tris buffer pH 7.5 is incubated with specified amount of HAP (or no HAP for control) by inversion for 15 min. […]

As usually defined, the half-life is the time in which the quantity being followed falls by half. A low value points to fast loss. For `CCCCCC[C@](C)(O)[C@H]1CC[C@H]2[C@@H]3C[C@H](O)[C@H]4C[C@@H](O)CC[C@]4(C)[C@H]3CC[C@@]21C` [OXY133], the “osteogenesis in cultured human primary mesenchymal stem cells” value in data set [1] was “induce osteogenesis”. The half-life in data set [2] is under 5 min. Besides, in the data set with spine fusion, the “spine fusion in rats” value is given as “induce spine fusion in rats in an accelerated manner”. Also, the “osteogenesis in non-rodent models of bone disease” value in the data set on bone disease models is on record as “induce robust osteogenesis”.
For `CCCCCC[C@](C)(O)[C@H]1CC[C@H]2[C@@H]3C[C@H](OC(=O)NCC(=O)NCCCC(O)(P(=O)(O)O)P(=O)(O)O)[C@H]4C[C@@H](O)CC[C@]4(C)[C@H]3CC[C@@]21C` [Oxy175], the “induction of osteogenic gene expression (ALP, BSP, OSX)” value in data set [3] is recorded as “most active”. In addition, the ALP activity induction entry in data set [4] is reported as “most active”.
Take `CCCCCC[C@](C)(O)[C@H]1CC[C@H]2[C@@H]3C[C@H](O)[C@H]4C[C@@H](OC(=O)NCC(=O)NCCCC(O)(P(=O)(O)O)P(=O)(O)O)CC[C@]4(C)[C@H]3CC[C@@]21C` [Oxy177]: the “HAP binding affinity, 1H-NMR method” value in data set [5] is listed as “binding affinity equivalent to the rest of the OXY-ALN series”.
